Measurements as given in PubChem BioAssay AID248 (DTP/NCI, 2004).
“And” between values parts separate entries of the source, which are not always exact repeats. Equal values may be shown once. Toxic doses and inconclusive results are not listed. No stated cut-off is given here; in the data, active means T/C of 150% or more; inactive means T/C below 125%.

Test system: L1210 leukemia ip in BDF1 mice, survival T/C
Test: NCI In Vivo Anticancer Drug Screen. Data for tumor model L1210 Leukemia (intraperitoneal) in B6D2F1 (BDF1) mice
Details: endpoint: mean survival time, higher = longer survival
Procedure, shortened: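 Value reflects the ratio of survival in compound-treated mice to survival in vehicle-treated controls, with both groups carrying the same transplanted tumor.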

[1] = dose: 100.0 mg/kg/injection, schedule: Q01DX009 (ip), vehicle: Klucel (hydroxypropylcellulose) (HPC)
[2] = dose: 100.0 mg/kg/injection, schedule: Q04DX003 (ip), vehicle: Klucel (hydroxypropylcellulose) (HPC)
[3] = dose: 200.0 mg/kg/injection, schedule: Q01DX009 (ip), vehicle: Klucel (hydroxypropylcellulose) (HPC)
[4] = dose: 200.0 mg/kg/injection, schedule: Q04DX003 (ip), vehicle: Klucel (hydroxypropylcellulose) (HPC)
[5] = dose: 400.0 mg/kg/injection, schedule: Q01DX009 (ip), vehicle: Klucel (hydroxypropylcellulose) (HPC)
[6] = dose: 400.0 mg/kg/injection, schedule: Q04DX003 (ip), vehicle: Klucel (hydroxypropylcellulose) (HPC)
[7] = dose: 100.0 mg/kg/injection, schedule: Q04DX003 (ip), vehicle: saline with Tween-80
[8] = dose: 200.0 mg/kg/injection, schedule: Q04DX003 (ip), vehicle: saline with Tween-80
[9] = dose: 400.0 mg/kg/injection, schedule: Q04DX003 (ip), vehicle: saline with Tween-80
[10] = dose: 50.0 mg/kg/injection, schedule: Q04DX002 (ip), vehicle: saline
[11] = dose: 100.0 mg/kg/injection, schedule: Q04DX002 (ip), vehicle: saline
[12] = dose: 100.0 mg/kg/injection, schedule: Q04DX002 (ip), vehicle: saline with Tween-80
[13] = dose: 200.0 mg/kg/injection, schedule: Q04DX002 (ip), vehicle: saline with Tween-80
[14] = dose: 100.0 mg/kg/injection, schedule: Q04DX003 (ip), vehicle: saline
[15] = dose: 50.0 mg/kg/injection, schedule: Q01DX009 (ip), vehicle: Klucel (hydroxypropylcellulose) (HPC)
[16] = dose: 100.0 mg/kg/injection, schedule: Q01DX009 (ip), vehicle: saline with Tween-80
[17] = dose: 400.0 mg/kg/injection, schedule: Q01DX009 (ip), vehicle: saline with Tween-80
[18] = dose: 200.0 mg/kg/injection, schedule: Q01DX009 (ip), vehicle: saline with Tween-80

Measured: T/C

Cc1nc(Br)c(C(O)c2ccccc2)n1C (stereo not given)
inactive: [1] 100 % of control and 103 % of control | dose: 100.0 mg/kg/injection, schedule: Q04DX002 (ip), vehicle: Klucel (hydroxypropylcellulose) (HPC) 101 % of control and 103 % of control | [2] 93 % of control | [3] 95 % of control and 109 % of control | dose: 200.0 mg/kg/injection, schedule: Q04DX002 (ip), vehicle: Klucel (hydroxypropylcellulose) (HPC) 101 % of control and 103 % of control | [4] 97 % of control | [5] 95 % of control and 117 % of control | dose: 400.0 mg/kg/injection, schedule: Q04DX002 (ip), vehicle: Klucel (hydroxypropylcellulose) (HPC) 98 % of control and 100 % of control | [6] 95 % of control

CCOC(=O)Nc1cccc(OC(=O)NC)c1
inactive: [7] 100 % of control | [8] 107 % of control | [9] 89 % of control

Oc1cccc2ccc3cccc(O)c3c12
inactive: dose: 100.0 mg/kg/injection, schedule: Q04DX003 (ip), vehicle: alcohol 100 % of control | dose: 200.0 mg/kg/injection, schedule: Q04DX003 (ip), vehicle: alcohol 93 % of control

CN(Cc1ccccc1O)C1CC2CCC1(C)C2(C)C (stereo not given)
inactive: [10] 97 % of control | [11] 101 % of control

O=S(=O)(F)c1cc(Cl)ccc1CBr
inactive: dose: 25.0 mg/kg/injection, schedule: Q04DX002 (ip), vehicle: saline with Tween-80 96 % of control | dose: 50.0 mg/kg/injection, schedule: Q04DX002 (ip), vehicle: saline with Tween-80 100 % of control | [12] 93 % of control | [13] 104 % of control | dose: 400.0 mg/kg/injection, schedule: Q04DX002 (ip), vehicle: saline with Tween-80 101 % of control

CC(C)(CCc1ccccn1)C(=O)C(CCc1ccccn1)CCc1ccccn1
inactive: dose: 222.0 mg/kg/injection, schedule: Q01DX Z (ip), vehicle: saline 110 % of control | dose: 333.0 mg/kg/injection, schedule: Q01DX Z (ip), vehicle: saline 102 % of control | dose: 500.0 mg/kg/injection, schedule: Q01DX Z (ip), vehicle: saline 96 % of control

O=C(C=C(C(F)(F)F)C(F)(F)F)c1cccs1
inactive: dose: 3.12 mg/kg/injection, schedule: Q01DX009 (ip), vehicle: saline 101 % of control | dose: 6.25 mg/kg/injection, schedule: Q01DX009 (ip), vehicle: saline 101 % of control | dose: 12.5 mg/kg/injection, schedule: Q01DX009 (ip), vehicle: saline 101 % of control | dose: 12.5 mg/kg/injection, schedule: Q04DX003 (ip), vehicle: saline 93 % of control | dose: 25.0 mg/kg/injection, schedule: Q01DX009 (ip), vehicle: saline 110 % of control | dose: 25.0 mg/kg/injection, schedule: Q04DX003 (ip), vehicle: saline 97 % of control | dose: 50.0 mg/kg/injection, schedule: Q04DX003 (ip), vehicle: saline 93 % of control | [14] 98 % of control

COc1cc(C(=O)CCC(=O)O)c(OC)c(C)c1C
inactive: dose: 100.0 mg/kg/injection, schedule: Q01DX001 (ip), vehicle: other 93 % of control | dose: 200.0 mg/kg/injection, schedule: Q01DX001 (ip), vehicle: other 96 % of control | dose: 400.0 mg/kg/injection, schedule: Q01DX001 (ip), vehicle: other 91 % of control

COC(=O)CC(c1ccc(OC)cc1)C(CC(=O)OC)c1ccc(OC)cc1 (stereo not given)
inactive: [2] 98 % of control | [4] 93 % of control | [6] 104 % of control

CC(C)=CCCNC(=O)NS(=O)(=O)c1ccc(Cl)cc1
inactive: [15] 101 % of control | [1] 95 % of control | [2] 104 % of control | [3] 102 % of control | [4] 110 % of control | [6] 95 % of control

CCCCCCCCCCCCC1CCCC(C)C1 (stereo not given)
inactive: dose: 25.0 mg/kg/injection, schedule: Q01DX009 (ip), vehicle: saline with Tween-80 89 % of control | dose: 50.0 mg/kg/injection, schedule: Q01DX009 (ip), vehicle: saline with Tween-80 99 % of control | [16] 92 % of control | [12] 105 % of control and 90 % of control | [13] 104 % of control and 90 % of control | [17] 90 % of control | dose: 800.0 mg/kg/injection, schedule: Q04DX002 (ip), vehicle: saline with Tween-80 97 % of control

Cc1cc(OC(=O)Nc2ccccc2)ccc1Cl
inactive: dose: 100.0 mg/kg/injection, schedule: Q04DX002 (ip), vehicle: saline + alcohol 100 % of control | dose: 200.0 mg/kg/injection, schedule: Q04DX002 (ip), vehicle: saline + alcohol 100 % of control | dose: 400.0 mg/kg/injection, schedule: Q04DX002 (ip), vehicle: saline + alcohol 96 % of control

CN(c1ccccc1)S(=O)(=O)c1ccc(NC(=O)CBr)cc1
inactive: dose: 37.5 mg/kg/injection, schedule: Q01DX001 (ip), vehicle: Klucel (hydroxypropylcellulose) (HPC) 86 % of control | dose: 75.0 mg/kg/injection, schedule: Q01DX001 (ip), vehicle: Klucel (hydroxypropylcellulose) (HPC) 93 % of control

C[n+]1ccccc1Cl
inactive: [10] 115 % of control | [11] 108 % of control | dose: 200.0 mg/kg/injection, schedule: Q04DX002 (ip), vehicle: saline 110 % of control

OC(/C(=C(/c1ccccc1)c1ccc(Cl)cc1)c1ccccc1)(c1ccccc1)c1ccccc1
inactive: [16] 98 % of control | [18] 95 % of control | [17] 98 % of control

Cc1nc(N)c(=O)[nH]c1C
inactive: dose: 100.0 mg/kg/injection, schedule: Q01DX001 (ip), vehicle: Klucel (hydroxypropylcellulose) (HPC) 104 % of control | [16] 90 % of control | [7] 100 % of control | dose: 200.0 mg/kg/injection, schedule: Q01DX001 (ip), vehicle: Klucel (hydroxypropylcellulose) (HPC) 97 % of control | [18] 112 % of control | [8] 105 % of control | dose: 400.0 mg/kg/injection, schedule: Q01DX001 (ip), vehicle: Klucel (hydroxypropylcellulose) (HPC) 97 % of control | [17] 104 % of control | [9] 114 % of control

C1=C(c2ccccc2)CC(/C=C/c2ccccc2)(c2ccccc2)C1c1ccccc1 (stereo not given)
inactive: [16] 87 % of control

O=C(O)C(Cc1cccs1)c1ccccc1 (stereo not given)
inactive: dose: 50.0 mg/kg/injection, schedule: Q04DX003 (ip), vehicle: carboxymethylcellulose (CMC) 98 % of control | dose: 100.0 mg/kg/injection, schedule: Q04DX003 (ip), vehicle: carboxymethylcellulose (CMC) 106 % of control | dose: 200.0 mg/kg/injection, schedule: Q04DX003 (ip), vehicle: carboxymethylcellulose (CMC) 106 % of control

CCOC(=O)c1ccc(=O)[nH]c1
inactive: [1] 102 % of control | dose: 100.0 mg/kg/injection, schedule: Q01DX009 (ip), vehicle: saline 88 % of control | [2] 96 % of control | [14] 116 % of control and 100 % of control | [3] 100 % of control | dose: 200.0 mg/kg/injection, schedule: Q01DX009 (ip), vehicle: saline 96 % of control | [4] 98 % of control | dose: 200.0 mg/kg/injection, schedule: Q04DX003 (ip), vehicle: saline 101 % of control and 100 % of control | [5] 95 % of control | dose: 400.0 mg/kg/injection, schedule: Q01DX009 (ip), vehicle: saline 93 % of control | [6] 90 % of control | dose: 400.0 mg/kg/injection, schedule: Q04DX003 (ip), vehicle: saline 104 % of control and 96 % of control

CCO/C=C1\SC(=S)N(c2ccccc2OC)C1=O
inactive: [16] 102 % of control | [18] 104 % of control | [17] 106 % of control

CCCCn1nnc2ccc([N+](=O)[O-])cc2c1=O
inactive: [1] 92 % of control | [3] 87 % of control

CCOC(=O)C1CCc2ccccc2CC1
inactive: dose: 200.0 mg/kg/injection, schedule: Q04DX003 (ip), vehicle: acetone 100 % of control

CCOC(=O)c1c[nH]c2c(ccc3cc(OC)ccc32)c1=O
inactive: [15] 101 % of control | [1] 97 % of control | [3] 97 % of control

CCOC(=O)C(C)(Br)C(Br)c1ccc([N+](=O)[O-])cc1 (stereo not given)
inactive: [1] 96 % of control | [2] 101 % of control | [3] 93 % of control | [4] 101 % of control | [5] 98 % of control | [6] 108 % of control

O=C(CNc1ccc2c(c1)Cc1cc(Br)ccc1-2)c1ccc(Br)cc1
inactive: dose: 100.0 mg/kg/injection, schedule: Q01DX001 (ip), vehicle: carboxymethylcellulose (CMC) 105 % of control | dose: 200.0 mg/kg/injection, schedule: Q01DX001 (ip), vehicle: carboxymethylcellulose (CMC) 111 % of control | dose: 400.0 mg/kg/injection, schedule: Q01DX001 (ip), vehicle: carboxymethylcellulose (CMC) 105 % of control
